As a reminder, the melting point is the temperature, or range, at which the solid turns liquid.

The results in this text go back to a melting point compilation (Tetko et al.; mined from patent text by program, amines drawn as free bases though some values may be those of a salt).

Each structure is given as a SMILES string.

The molecule `COc1ccc(S(N)(=O)=O)cc1C(O)CN=[N+]=[N-]` (configuration not stated) registered a melting point of 122 °C.
In turn, `Cc1[nH]c(C(=O)O)c(C)c1C=O` displayed a melting point of 233 to 237 °C.
Under `CCC(c1ccc(-c2ccc(Cl)cc2)cc1)N1CCNCC1` (configuration not stated) stands 95 to 97 °C.
In the case of `CC(=O)C(=NNc1ccccc1)C(N)=O` it was 146 to 147 °C.
Under `NC(=O)c1ccc(-c2cccc3cc(Cc4cccc(C(F)(F)F)c4)sc23)cn1` stands 144 to 145 °C.
`Cc1cnn(-c2cc(F)c(C#N)cc2F)c(=O)c1` gave a melting point of 223 °C.
`CC(C)c1ccc(-c2ccc(-c3cccc(C(=O)O)c3)s2)cc1` registered a melting point of 233 to 235 °C.
Under `CC(C)(C)NCC(O)CN1C(=O)NC(Cc2c[nH]c3ccccc23)C1=O` (configuration not stated) stands 190 to 191 °C.
Under `CC(=O)Nc1cc(F)ccc1C(=O)NCCN1CCC(n2c(=O)[nH]c3cc(Cl)ccc32)CC1` stands 196 °C.
Under `CCC(CC)c1nn(-c2ccc(C(F)(F)F)cn2)cc1CCCOc1c(F)cccc1CC(=O)O` stands 102 to 103 °C; under `CCOC(=O)COc1ccc([N+](=O)[O-])cc1Cl`, 73 to 74 °C; under `COC(=O)CCc1ccc(OCc2sc3ccccc3c2Cl)cc1`, 97 to 98 °C.
The molecule `O=C1N(Cc2ccc(Cl)cc2)c2ccc(Br)cc2C1(O)c1ccc2c(c1)OCO2` (configuration not stated) had a melting point of 179 to 180 °C.
In the case of `NC(=O)Nc1ccc(N2CCN(c3ccncc3)CC2)cc1` it was over 250 °C; in that of `O=S(=O)(Nc1ccccc1OC(c1ccncc1)C1CCNCC1)c1ccc2cc(Br)ccc2c1` (configuration not stated), 197 to 200 °C; in that of `COc1cn(-c2ccc(-n3c(=O)ccn3C(F)F)cc2F)nc(-c2ccnn2-c2ccccc2)c1=O`, 161 to 163 °C.
`Cc1c(NC(=O)c2cccc(OCC(=O)OC(C)(C)C)c2)c2ccccn2c1C(=O)c1ccc(NC(=O)C(F)(F)F)c(C(=O)OCc2ccccc2)c1`: the melting point came out at 200 °C.
Molecule `O=C(O)Cc1c(C(=O)c2ccccc2)[nH]c2ccccc12` registered a melting point of 194 to 196 °C.
In the case of `CCC(CC)Oc1cc(C)nc(Nc2c(C)cc(C)cc2C)c1C(=O)n1ccnc1` it was 120 to 122 °C; in that of `O=C(O)COc1ccc(CCc2ccc(-c3ccc(C(F)(F)F)cc3)cc2)c2c1CCC2`, 188 to 190 °C; in that of `O=C(O)c1cc2cc(Cl)ccc2[nH]c1=O`, over 310 °C.
Consider `CC(C)(C(=O)OCC(=O)c1ccccc1)n1c(=O)[nH]c2ccc(F)cc2c1=O`, for which the melting point was in the range of 192 to 193 °C.
In turn, `CN1CCN(C2(CNC=O)CCCCC2)CC1` had a melting point of 97 to 98 °C.
In the case of `CN(C)CCCC1(O)c2ccccc2CCn2cccc21` (configuration not stated) it was 68 to 70 °C; in that of `Cc1c(Cl)cc(C(C)(C)C)c(O)c1-c1nc2ccc(F)cc2c(=O)[nH]1`, 224 to 225 °C.
In the case of `O=S(=O)(Nc1cc(Cl)c(Cl)c(Cl)c1)c1cc(S(=O)(=O)Nc2cc(Cl)c(Cl)c(Cl)c2)c2cc(O)ccc2c1` it was 164 to 166 °C; in that of `Cn1ncc2[nH]c3ccc(F)cc3c(=O)c21`, 301 °C; in that of `O=C1CCC(N2CCN(c3ccccn3)CC2)CC1`, 142 to 144 °C.
In the case of `Cn1nc(-c2ccccc2O)c2sccc21` it was 112 to 113 °C; in that of `COc1ccc(/C=C/c2ccncc2)cc1OC1CCCC1`, 108 °C; in that of `O=Cc1cc2c(cc1O)CCCO2`, 97 to 100 °C.
In turn, `CSc1cc2cc(-c3ccccc3)ccc2cc1O` came in with a melting point of 129 to 130 °C.
In the case of `CC1=C(N2CC2)C(=O)c2c([nH]c(C)c2C)C1=O` it was 251 to 253 °C; in that of `Cc1cc2c(cc1O)C(C)(C)CC1(CC(C)(C)c3cc(OCCCn4cccn4)c(C)cc3O1)O2` (configuration not stated), 239 to 241 °C; in that of `COc1cc2c(cc1OC)CN(CCCc1ccc(NC(=O)c3cccc4c(=O)c5cccc(F)c5[nH]c34)cc1)CC2`, 166 °C.
Under `CN1CCCC(NC(=O)c2ccc3[nH]ncc3c2)C1` (configuration not stated) stands 228 to 229 °C; under `OC(Cn1ccnc1)(c1ccc(Cl)cc1)C1(n2cnc(Cl)n2)CC1` (configuration not stated), 231 °C.
In the case of `c1ccc(CC2CCN(Cc3ccn(-c4ccccc4)c3)CC2)cc1` it was 159 to 161 °C; in that of `O=C(OCc1ccccc1)c1ncc(OCc2ccccc2)c(OCc2ccccc2)c1Br`, 120 °C; in that of `C=CCN1CC(c2ccccc2)=C(O)C1=O`, 178 to 183 °C.
`CC(=O)Nc1ccc(SCCCCNS(=O)(=O)c2ccc(C)cc2)cc1` returned a melting point of 104 to 105 °C.
Molecule `COc1ccc(NC(=O)c2ccc([N+](=O)[O-])c(OC)c2)cc1` displayed a melting point of 168 to 169 °C.
Under `CNC(=O)Oc1ccc2c(c1)CCN2` stands 109 to 112 °C; under `O=C(O)C1=Cc2ccc(Br)cc2OC1C(F)(F)F` (configuration not stated), 198 to 200 °C; under `CSc1ccc(-c2nc(=O)c3ccccc3s2)cn1`, 168 to 170 °C.
In the case of `CCNc1cc(OC)ccc1S(=O)(=O)N1C(=O)C(N)(c2ccccc2Cl)c2cc(Cl)ccc21` (configuration not stated) it was 192 to 196 °C; in that of `Cc1cnc(Sc2nc(C)c(CC(=O)O)s2)c(C(=O)O)c1`, 229 to 231 °C.
Under `Cc1cc(-c2cccc(C(F)(F)F)c2)n2ccnc2n1` stands 170 to 172 °C.
`CC(C)(C)OC(=O)Nc1ccc(C#Cc2ccc(F)cc2)cc1NC(=O)CC(=O)c1ccnc(-n2ccnc2)c1` displayed a melting point of 169 °C.
Under `Cc1cc(CNC(=O)c2cc(-c3ccc(C(C)(C)C)cc3)[nH]n2)ccc1OC(C)(C)C(=O)O` stands 100 °C; under `COc1ccc(-c2c(NC(=O)c3cc(C(C)(C)C)c(O)c(C(C)(C)C)c3)cnc3ccc(Cl)cc23)cc1OC`, 293 to 294 °C.
For `O=C(Nc1ccc(F)cc1F)N(Cc1ccccc1)CC(c1ccccc1)c1ccccc1`, the melting point lay in the range of 120 to 123 °C.
Under `Cc1c(C#N)cccc1C(=O)c1ccc(Cl)cc1` stands 84 °C.
In the case of `O=C(N[C@@H](CO)c1nc2cc(Br)ccc2[nH]1)c1ccc(C(=O)N2CC=CC2)c(Cl)c1` it was 124 to 126 °C; in that of `COc1ccc(S(=O)(=O)Nc2ccccc2NC(=O)c2ccc(F)cc2Cl)cc1`, 160 to 162 °C; in that of `O=C(Nc1c(C(O)(C(F)(F)F)C(F)(F)F)ccc2ccccc12)c1cccc(Cl)c1`, 179 to 181 °C.
Under `CCCc1c(OCCCSc2c(C(C)C)nn3ccccc23)ccc(C(C)=O)c1O` stands 95 to 95.5 °C; under `N#Cc1cnc2cc(F)c(OCCN3CCOCC3)cc2c1Cl`, 163 to 164 °C; under `COc1ccc2c(c1)Cc1c-2[nH]c2ccc(OCc3ccccc3)cc12`, 189 to 193 °C.
In the case of `N#Cc1ccc(CNCCO)cc1`, the melting point is under 60 °C.
In the case of `CCCCc1c(OS(=O)(=O)c2ccc(C)cc2)n(-c2ccccc2)n(-c2ccccc2)c1=O` it was 112 to 121 °C.
Consider `CCCCCCCCCCCCSc1nnn(C(C(=O)Nc2c(OC)cc(OC)cc2OC)c2ccccc2)n1` (configuration not stated), for which the melting point is 141 to 143 °C.
In the case of `Cc1ccc2c(c1)C=Cc1nc(C)oc1C2c1cn(Cc2cccc(C(=O)O)c2)c(=O)[nH]c1=S` (configuration not stated) it was 180 °C.
With `COC(=O)c1cc2c3cc(Cl)ccc3n(C)c2s1`, the melting point fell in the range of 188 to 190 °C.
`CC(C)(C)c1cc(CCC(N)=O)cc(-n2nc3ccc(S(=O)(=O)c4ccccc4)cc3n2)c1O` registered a melting point of 144 to 145 °C.
Under `NC(=O)Cn1ccc2cccc(NC(c3ccc4c(cnn4-c4ccc(F)cc4)c3)C(F)(F)F)c21` (configuration not stated) stands 105 °C; under `CC(=O)Oc1ccc(C=CC(=O)Nc2cc(C)c(OCc3ccccc3)c(C)c2)cc1OC(C)=O`, 125 to 127 °C.
In the case of `COc1cc2oc(=O)c3c(c2cc1OC)CCN(Cc1ccccc1)C3` it was 189 to 191 °C.
Under `COc1cc2[nH]c(=O)cc(C(F)(F)F)c2cc1NC(C)=O` stands 280 °C; under `CCCCc1nc(C(O)(C(C)C)C(C)C)c(C(N)=O)n1Cc1ccc(-c2ccccc2C(=O)O)cc1`, 178 to 181 °C.
The molecule `CN1CCC(C(=O)N(C)c2ccc(C(=O)N3CCCCc4ccccc43)cc2)CC1` registered a melting point of 194 to 197 °C.
In the case of `CN1CCN(c2cccc3c2C[C@H](NC(=O)c2ccc(N4CCCCC4)cc2)CO3)CC1` it was 178 to 180 °C.
Under `Cc1cc(C)c(CCCc2c(C)nc(N)nc2N)cc1C` stands 188 to 190 °C; under `C[C@H](N=Cc1ccc(OCc2ccccc2F)cc1)C(N)=O`, 121 °C; under `CC(C)n1nc(-c2sc(NC(=O)c3ccc(CN4CCCC4)cc3)nc2-c2ccccc2)ccc1=O`, 221 to 222 °C.
With `CNc1cc(F)ccc1C(=O)CS(C)=O` (configuration not stated), the melting point is 129 to 134 °C.
Under `O=C1CSCN1CC#CCN1CCC(n2c(=O)[nH]c3ccccc32)CC1` stands 202 to 204 °C; under `CN1OC(C=Cc2ccccc2)CC1(Cn1ccnc1)c1ccc2ccccc2c1` (configuration not stated), 166 to 169 °C; under `O=c1c(CO)csc2ccc3ccccc3c12`, 158 to 159 °C.
Take `O=C(O)CCc1oc(-n2ccnc2)nc1-c1ccc(Cl)cc1`: the melting point is 194 to 195 °C.
Under `Cc1nn(C)c(-c2ccccc2)c1N` stands 138 to 139 °C; under `O=c1[nH]c(=O)n(Cc2ccc(OCc3noc(-c4ccccc4)n3)cc2)o1`, 150 to 151 °C.
`COC(=O)[C@@H]1C[C@@H](OS(C)(=O)=O)CN1C(=O)C1(C)CC1` came in with a melting point of 102 to 103 °C.
Under `O=C(O)CC(CC(=O)O)C(F)(F)F` stands 100 °C; under `NC(Cc1ccccc1)C(=O)NC1CCN(c2nc3c(cc2F)c(=O)c(C(=O)O)cn3C2CC2)C1` (configuration not stated), 216 to 219 °C; under `CCc1nc2c(NC(=O)C(C)C)nc3ccccc3c2n1CCCCNS(C)(=O)=O`, 122 to 124 °C.
In the case of `COC(=O)c1ccccc1-c1ccc(CNc2nc(C(F)(F)F)nc3ccccc23)cc1` it was 135 to 142 °C.
